From patent US20260049103A1, “PEPTIDE, AND COMPOSITION THEREOF AND USE THEREOF” (WINKEY TECHNOLOGY USA INC, priority 2023, published 2026)
Non-standard residues stand in square brackets, D forms with d. *: point of attachment. Palmitoyl = CCCCCCCCCCCCCCCC(=O)*; Nle = CCCC[C@H](N)C(=O)O

What was measured:
hyaluronic acid = experiment: Determination of hyaluronic acid content in HaCaT cells; assay type: cell-based, Human; conditions: 12.5 ppm, 48 h, compared with blank control, FIG. 9
Description: (§1) Human keratinocytes (HaCaT) were purchased from the Kunming Cell Bank of China Center for Type Culture Collection under the Chinese Academy of Sciences.
Polypeptide group: Peptide (4), peptide (13) and peptide (20). The test concentrations of all the above samples were 12.5 ppm.
(§2) Blank control group: PBS.
A bottle of HaCaT cells in good exponential growth phase was taken. A 0.25% trypsin digestion solution was added so that digestion allowed the adherent cells to fall off, counting 1 to 4×10^6 cells/mL, which were prepared into a cell suspension.
The cells were inoculated into a 6-well plate at 10^5 cells/well, and grouped when the cells reached approximately 80% confluence. […]
After completion of the culture, cells were scraped off using a cell scraper, and 200 μL of RIPA lysis buffer was added to extract proteins. […] The total protein concentration was quantified to 1 mg/mL using the BCA method. […] The OD value of each well was measured in sequence at 570 nm using a microplate reader within 15 min.
Hyaluronic acid is one of the main matrix ingredients of the human skin epidermis and an important component of the skin barrier. […] This experiment measured the effect of the peptide of the present invention on the hyaluronic acid content to determine whether the peptide of the invention can increase the hyaluronic acid content and thus play a role in moisturizing and anti-aging repair.

[1] = test system: Human keratinocytes (HaCaT); experiment: Cell proliferation assay (MTT) in HaCaT cells; assay type: cell-based; conditions: FIG. 6; for cell activity / proliferation of HaCaT keratinocytes: 72 h, at low concentrations (tested 6.25, 12.5, 25 ppm)
Excerpt: Thiazolyl blue (MTT), dimethyl sulfoxide (DMSO), DMEM culture medium, fetal bovine serum, and PBS.
as §1
Polypeptide group: Peptide (4), peptide (9), peptide (13) and peptide (20). The test concentrations of all the above samples were 6.25 ppm, 12.5 ppm and 25 ppm.
as §2
Positive control group: 2% DMSO.
Cells in good exponential growth phase were taken. A 0.25% trypsin digestion solution was added so that digestion allowed the adherent cells to fall off, counting 1 to 4×10^5 cells/mL, which were prepared into a cell suspension.
The cell suspension was inoculated into a 96-well plate with 200 μL/well, and cultured in a constant-temperature CO2 incubator for 24 h.
After changing the medium, samples of the polypeptide groups, the blank control group and the positive control group were added at 20 μL/well respectively, and incubated in a 5% CO2 incubator at 37° C. for 72 h.
20 μL of 5 mg/mL MTT was added to each well and the incubation was continued in the 5% CO2 incubator at 37° C. for 4 h. The original solution was removed and 150 μL/well of DMSO was added. After shaking the plate on a plate shaker for 5 min, a microplate reader was used to determine the OD value of each well at a wavelength of 570 nm, and the cell viability was calculated.
Cell viability=[OD (test sample well)−OD (zero adjustment well)]/[OD (blank control well)−OD (zero adjustment well)]×100%
The MTT assay is a method of detecting cell survival and growth. The measured OD values are directly proportional to cell viability. The higher the cell viability, the larger the OD value.

hyaluronidase = experiment: Hyaluronidase inhibition experiment; assay type: biochemical; conditions: FIG. 11; for hyaluronidase inhibition rate: at 100 ppm; for inhibition of hyaluronidase activity: at the tested concentrations (50 ppm and 100 ppm)
Excerpt: Spectrophotometer, phosphate buffered saline (PBS), hyaluronic acid, and hyaluronidase.
Peptide (13) and peptide (14). The test concentrations of all the above samples were 50 ppm and 100 ppm.
The experiment was divided into four groups: blank control group A1 (PBS+hyaluronidase), enzyme-free blank control group A2 (PBS+solvent without hyaluronidase), sample group B1 (samples to be tested+hyaluronidase), and enzyme-free sample group B2 (samples to be tested+solvent without hyaluronidase). The total reaction volume of each group was the same.
According to the grouping, 100 μL of CaCl2) (2.5 mmol/L) was mixed with 500 μL of hyaluronidase (500 U/mL) or solvent without hyaluronidase, and 20 μL of the mixture was taken and shaken in a 37° C. constant temperature gas bath oscillator for 20 min. The blank control group was added with 20 μL of PBS and shaken in a 37° C. constant temperature gas bath oscillator for 20 min. The sample groups were added with 20 μL of samples at different concentrations and shaken in a 37° C. constant temperature gas bath oscillator for 20 min. The above groups were added with 40 μL of hyaluronic acid and shaken in a 37° C. constant temperature gas bath oscillator for 40 min. 10 μL of acetylacetone solution was added and shaken in a 50° C. constant temperature gas bath oscillator for 10 min, then placed in an oven at 75° C. for 40 min and at 50° C. for 10 min. After the reaction was completed and cooled, the plastic wrap was quickly removed to avoid the generation of water vapor. Then 100 μL of 96% anhydrous ethanol and 10 μL of Ehrlich reagent were added, and the absorbances were measured at 492 nm.
Hyaluronidase can decompose hyaluronic acid in the body, converting it into low-molecular-weight acidic irritant, thereby causing the release of histamine and inducing sensitive symptoms in the body. In addition, the reduction of hyaluronic acid will destroy the skin barrier function, leading to the loss of moisture inside the skin. Therefore, inhibiting the activity of hyaluronidase can achieve the effects of soothing, moisturizing and repairing the skin barrier.

filaggrin (FLG) = experiment: Filaggrin expression experiment (UV-irradiated HaCaT cells); assay type: cell-based, Human; conditions: 80 mJ/cm^2 UV, 24 h, 10-50 ppm, compared with UV group, fluorescence staining, FIG. 10
Description: as §1
Polypeptide group: Peptide (4), peptide (9), peptide (13) and peptide (20). The test concentrations of all the above samples were 10 ppm and 50 ppm.
as §2
UV group: UV radiation with PBS.
The frozen HaCaT cells were cultured and passaged at a ratio of 1:2 to about the 5th generation, and the cells in better growth were selected as experiment subjects. The cell suspension was taken and inoculated into a 96-well plate at 10^4 cells/well, complete culture medium was added, and the mixture was cultured in a 5% CO2 incubator at 37° C. for 24 h. A UV photoaging model was established when the cells reached approximately 80% confluence. […]
After incubation, the cells were digested, grown on a cell climbing slice for 12 hours and then fixed. The cells were stained using a filaggrin (FLG) detection kit and observed under a fluorescence microscope after staining.
Filaggrin (FLG) is an important molecule that links keratin fibers in the stratum corneum of human skin. […] In this experiment, 80 mJ/cm^2 UV energy was selected for radiation to establish a skin stratum corneum cell model, and the effect of the sample on FLG expression was detected to analyze whether the peptides of the present invention can promote FLG expression.

Q: Which hyaluronic acid content (hyaluronic acid) does the source give for Palmitoyl-G[Nle]KLY-NH2 [peptide (4)] here?
A: more superior technical effects

Q: “Palm-Val-Lys-Leu-Tyr-Gly-Ser-NH2 (Palmitoyl-VKLYGS-NH2; SMILES CCCCCCCCCCCCCCCC(=O)N[C@H](C(=O)N[C@@H](CCCCN)C(=O)N[C@@H](CC(C)C)C(=O)N[C@@H](Cc1ccc(O)cc1)C(=O)NCC(=O)N[C@@H](CO)C(N)=O)C(C)C) [peptide (9)]” was tested. Which “cell activity / proliferation of HaCaT keratinocytes” value [1] did it give?
A: significantly improve cell activity

Q: For C[S+](C)[O-] [2% DMSO, dimethyl sulfoxide, reference compound], which “toxic effect on HaCaT cells (cell viability)” value ([1]; 72 h incubation, peptides at 6.25, 12.5 and 25 ppm, compared with blank control (PBS)) is on record?
A: had a toxic effect on HaCaT cells

Q: Palmitoyl-G[Nle]RLY-NH2 [peptide (20)] was tested. Which “cell activity / proliferation of HaCaT keratinocytes” value [1] did it give?
A: significantly improve cell activity

Q: What about the hyaluronic acid content (hyaluronic acid) of the same compound?
A: more superior technical effects

Q: With “Palm-Lys-Val-Lys-Leu-Tyr-OH (Palmitoyl-KVKLY-OH; SMILES CCCCCCCCCCCCCCCC(=O)N[C@@H](CCCCN)C(=O)N[C@H](C(=O)N[C@@H](CCCCN)C(=O)N[C@@H](CC(C)C)C(=O)N[C@@H](Cc1ccc(O)cc1)C(=O)O)C(C)C) [peptide (14)]” as the compound, how does the hyaluronidase inhibition rate (hyaluronidase) read?
A: 40.96%

Q: What about the “inhibition of hyaluronidase activity” value (hyaluronidase) of the same compound?
A: inhibited the activity of hyaluronidase

Q: With “Palm-Lys-Val-Lys-Leu-Tyr-NH2 (Palmitoyl-KVKLY-NH2; SMILES CCCCCCCCCCCCCCCC(=O)N[C@@H](CCCCN)C(=O)N[C@H](C(=O)N[C@@H](CCCCN)C(=O)N[C@@H](CC(C)C)C(=O)N[C@@H](Cc1ccc(O)cc1)C(N)=O)C(C)C) [peptide (13)]” as the compound, how does the “FLG content / FLG expression” value (filaggrin (FLG)) read?
A: optimum technical effect

Q: What about the hyaluronidase inhibition rate (hyaluronidase) of the same compound?
A: 49.40%

Q: What about the “inhibition of hyaluronidase activity” value (hyaluronidase) of the same compound?
A: inhibited the activity of hyaluronidase
